The record followed here is patent EP1844039B1, “5-SUBSTITUTED QUINOLINE AND ISOQUINOLINE DERIVATIVES, A METHOD FOR THE PRODUCTION THEREOF AND THEIR USE AS ANTIPHLOGISTICS” (priority 2004, dated 2006).

The subject of one data set is IL-8. The data set is described as follows: Inhibition of LPS-induced IL-8 secretion in THP-1 cells (ELISA of supernatant). It counts as cell-based, menschlichen. The following applies: for Efficacy: Efficacy von Dexamethason = 100%; for IC50: Homo sapiens. An excerpt:
Die erfindungsgemäßen Verbindungen der allgemeinen Formel (IIa) und (IIb) hemmen die durch Lipopolysaccharid (LPS) induzierte Sekretion des Zytokins IL-8 in der menschlichen Monozytenzelline THP-1.

In data set [1] the test system is Tyrosinaminotranferase (TAT). The experiment in a line: Induction of tyrosine aminotransferase (TAT) in hepatoma cells, 24 h treatment, photometric. The data set is classed as cell-based, Ratten. The note with it: rat hepatoma cells; for Efficacy: Efficacy von Dexamethason = 100%. The text has this:
Immunologische Grundlagen, Pharmakologie und Therapierichtlinien, Wissenschafliche Verlagsgesellschaft mbH, Stuttgart, 1998]. Ursache hierfür ist die Stimulation der Gluconeogenese in der Leber durch Induktion der hierfür verantwortlichen Enzyme und durch freie Aminosäuren, die aus dem Abbau von Proteinen (katabole Wirkung der Glucocorticoide) entstehen. Ein Schlüsselenzym des katabolen Stoffwechsels in der Leber ist die Tyrosinaminotranferase (TAT). Die Aktivität dieses Enzyms kann photometrisch aus Zellkulturen von behandelten Ratten-Hepatomzellen bestimmt werden. Die Zellen werden für 24 Stunden mit den Testsubstanzen behandelt und anschließend die TAT-Aktivität gemessen.

A short description of data set [2]: Skin atrophy induction, 18 days daily local treatment, skin fold thickness measurement. The data set is classed as in vivo. The note with it: rats. The text has this: Eine weitere, besonders nach lokaler Therapie, auftretende unerwünschte Wirkung ist die Induktion einer Hautatrophie, die zu einem Verlust der Haut an Dicke, Elastizität und letztlich der mechanischen Belastbarkeit der Haut führt. Das Potential einer Substanz, Hautatrophie zu induzieren, kann in Ratten bestimmt werden. Die Tiere werden dafür 18 Tage täglich lokal in äquieffektiven Dosierungen mit den Testsubstanzen behandelt. Mittels einer Hautfaltendickenmessung läßt sich die Abnahme der Hautdicke über die Behandlungszeit verfolgen.
Im Vergleich zu Clobetasolpropionat, das bei einer Konzentration von 0.01 % (maximale anti-inflammatorische Wirkung wird erreicht) zu einer 65%igen Reduktion der Hautdicke führt, ist bei Beispiel 1 bei einer Konzentration von 0.1 % (maximale anti-inflammatorische Wirkung wird erreicht) nur eine 41 %ige Reduktion festzustellen.
Dieser Vorteil ist auch gegenüber den Substanzen aus der Anmeldung WO03/082827 zu sehen; beispielsweise induziert das Eutomer von Beispiel 36 bereits bei einer Konzentration von 0.06% (maximale anti-inflammatorische Wirkung) eine 60%ige Reduktion der Hautdicke.

SMILES strings stand for the structures.

As usually defined, the IC50 is the point on the concentration scale where inhibition reaches its midpoint. Broadly, the EC50 is the concentration needed to bring the measured effect to its halfway point. As to `Cc1ccc2c(NCC(O)(CC(C)(C)c3cc(F)cc4c3OCC4)C(F)(F)F)cccc2n1` (racemic) [Beispiel 1, 5-[4-(5-Fluor-2,3-dihydrobenzofuran-7-yl)-2-hydroxy-4-methyl-2-trifluormethyl-pentylamino]-2-methylchinolin], in the data set on IL-8, the Efficacy came to 74% and inhibition was half-maximal at 5.9 nM (IC50). In data set [1], this compound gave an EC50 of 3.7 nM and an Efficacy of 93%. Besides, the “Reduktion der Hautdicke” value in data set [2] (concentration 0.1 % (maximal anti-inflammatory effect reached)) is reported as 41%.
Take `CCC(=O)O[C@]1(C(=O)CCl)[C@@H](C)C[C@H]2[C@@H]3CCC4=CC(=O)C=C[C@]4(C)[C@@]3(F)[C@@H](O)C[C@@]21C` [Clobetasolpropionat, reference compound]: in data set [2] (concentration 0.01 % (maximal anti-inflammatory effect reached)), the “Reduktion der Hautdicke” value stood at 65%.
As to `C[C@]12C=CC(=O)C=C1CC[C@@H]1[C@@H]2[C@@H](O)C[C@@]2(C)[C@H]1CC[C@]2(O)C(=O)CO` [Prednisolon, reference compound], in the data set on IL-8, the Efficacy is on record as 96% and the IC50 was determined as 13 nM. Moreover, in data set [1], the EC50 came out at 2.6 nM and the Efficacy is 103%.
As to `Cn1ccc2c(NCC(O)(CC(C)(C)c3cc(F)cc4c3OCC4)C(F)(F)F)cccc2c1=O` (racemic) [Beispiel 11, 5-[4-(5-Fluor-2,3-dihydrobenzofuran-7-yl)-2-hydroxy-4-methyl-2-trifluormethylpentylamino]-2-methylisochinol-1(2H)-on], in the data set on IL-8, the Efficacy turned out to be 61% and it took 8.5 nM to reach half-maximal inhibition (IC50). In data set [1], this compound returned an EC50 of 4 nM and an Efficacy of 86%.
For `Cc1ccc2c(NCC(O)(CC(C)(C)c3cc(F)cc4c3OCC4)C(F)(F)F)ccc(F)c2n1` (racemic) [Beispiel 10, 8-Fluor-5-[4-(5-Fluor-2,3-dihydrobenzofuran-7-yl)-2-hydroxy-4-methyl-2-trifluormethyl-pentylamino]-2-methylchinolin], in that order: 86%, 21 nM, 10 nM and 92%.
